The text below walks through data of US11497740B2, “Use of Jumonji C demethylase inhibitors for the treatment and prevention of chemotherapy resistance and radioresistance in cancer” (THE BOARD OF REGENTS OF THE UNIVERSITY OF TEXAS SYSTEM, priority 2016, dated 2022).

The subject of series [1] is H1299 Parental xenografts. As to conditions: for final tumor burden (tumor weights) of combination / tumor growth inhibition of combination: combination with paclitaxel+carboplatin chemotherapy. The method, then:
(§1) Animals were housed under standard, sterile conditions at UTSW animal facility. All experiments were carried out under approved IACUC protocols and followed UTSW animal care procedures. For tumor growth rate studies and docetaxel+cisplatin drug response comparisons, 6-8 week old female NOD/SCID mice were used. For all subsequent in vivo drug response studies, 6 week old female athymic nude mice were used (Charles River Labs, Jackson Labs). Experimental details are provided in supplemental information.
(§2) Parental and resistant NSCLC cell lines (1×10^6 cells in PBS or RPMI for H1299; 5×10^6 cells in PBS/matrigel for H1355 and HCC4017) were injected subcutaneously into the right flank of mice. Tumor growth was monitored by caliper measurements and tumor volume was calculated by 0.5×length×width^2). Treatment was started when tumors reached ˜150-200 mm3. Drug/Vehicle therapy was given to tumor volume matched pairs. Docetaxel (3 mg/kg) and cisplatin (3 mg/kg) were given i.p. once a week for 3 weeks. For JIB-04 studies, nude mice were randomized to receive either of 5, 20 or 50 mg/kg doses or vehicle, 3× per week for 2 weeks by gavage in 12.5% cremophor EL, 12.5% DMSO, aqueous suspension.

The test system of the next series is H1299 T18 xenografts. As to conditions: for final tumor weights vs vehicle: GSK-J4 100 mg/kg 10 days, JIB-04 50 mg/kg; for tumor volume vs vehicle: GSK-J4 100 mg/kg every day 10 days, JIB-04 5, 20 or 50 mg/kg 3x per week 2 weeks by gavage. The method, then:
as §1, §2

Another series concerns H1355 T16 xenografts. As to conditions: for toxicity in treated mice: mouse, in vivo. The method, then: as §1
Parental and resistant NSCLC cell lines (1×10^6 cells in PBS or RPMI for H1299; 5×10^6 cells in PBS/matrigel for H1355 and HCC4017) were injected subcutaneously into the right flank of mice. Tumor growth was monitored by caliper measurements and tumor volume was calculated by 0.5×length×width^2). Treatment was started when tumors reached ˜150-200 mm3. Drug/Vehicle therapy was given to tumor volume matched pairs. Docetaxel (3 mg/kg) and cisplatin (3 mg/kg) were given i.p. once a week for 3 weeks. […]

The subject of series [2] is H3K27me3 demethylase activity. Description: Histone demethylase activity in tumor lysates by ELISA (H3K27me3). Format: in vivo. As to conditions: H1299 T18 xenografts, drug-treated vs vehicle. The source says:
To evaluate whether the targeted KDM enzymatic activity was reduced in the JmjC inhibitor-treated tumors in vivo, the inventors measured histone demethylase activity in drug-treated and vehicle-control tumor lysates by ELISA. […] Altogether, the results confirmed reduction of the targeted KDM enzymatic activity with cytostatic/cytotoxic effects in JmjC inhibitor-treated chemoresistant xenografts.
Background: In an ELISA, binding on a coated surface is turned into a signal by an enzyme label.

The subject of a further series is H1299. Description: Clonogenic survival with ionizing radiation, H1299. Format: cell-based, Human. As to conditions: 16 nM JIB-04; for radiosensitization (clonogenic survival): drug 4 h before IR, 175 nM GSK-J4. On the procedure:
Cells were serially diluted to appropriate concentrations and plated into 60-mm dish in triplicate for 4 h. Then cells were treated with the indicated drugs, and irradiated 4 hours later with graded doses of radiation for concurrent treatment or irradiated and 4 hours later the drugs added for post-treatment. All cells were irradiated at room temperature in ambient air using a 137Cs source (Mark 1-68 irradiator, JL Shepherd & Associated). Surviving colonies were stained with crystal violet approximately 10 to 14 days later and colonies formed with more than 50 cells were counted. Clonogenic fraction of irradiated cells was normalized to the plating efficiency of unirradiated controls. The data are presented as the mean±SD. The curve S=e^−(αD+βD2) was fitted to the experimental data using a least square fit algorithm using the program Sigma Plot 11.0 (Systat Software, Inc.).

The next series has as its system γH2AX foci. Description: Immunofluorescence DSB repair kinetics, γH2AX foci. Format: cell-based, Human. On the procedure:
NSCLCs were seeded onto Lab-Tek II Chamber Slides (Thermo Fisher) and 24 hours later pretreated with JIB-04 or DMSO for 4 h. Then cells were exposed to a total dose of 2 Gy (γH2AX and 53BP1) or 10 Gy (RAD-51 and DNAPKcs p-T2609) radiation. For knockdown and overexpression experiments H1299 cells were transfected using the Amaxa Nucleofector; program X-005. Specifically, 3×10^6 were transfected with siRNA duplexes targeting JMJD2A, JMJD2B, Jarid1A, Jarid1b, scrambled siRNA (250 nM final concentration) or expression vectors pCMVHA-JMJD2A, pCMVHA-JMJD2B, pCMVHA-Jarid1A, pCMVHA-Jarid1B, PC-2 for 72 hours, followed by quantification of expression or irradiation. Then, cells were fixed in 4% formaldehyde/PBS for 15 min, permeabilized with 0.5% Triton X-100 for 15 min on ice, and blocked with 5% bovine serum albumin in PBS for 1 h. The slides were incubated with an antibody against phospho-Histone γH2AX (1:1000, 3 h at room temperature), 53BP1 (1:500, 3 h at room temperature), Rad-51 (1:500, 48 hs 4° C.) or DNAPKcs p-T2609 (1:500, 48 hs 4° C.). Alexa Fluor 488-conjugated goat anti-Rabbit, […] goat anti-mouse or rhodamine red-conjugated goat anti-mouse secondaries antibodies were used (1:1000, 1 h at room temperature). Slides were mounted in a Vectashield mounting medium containing 4′,6-diamidino-2-phenylindole (DAPI). Cells were analyzed on a Zeiss upright fluorescent microscope.

Where [3] appears, read: from non-linear regression/exponential growth curves.

Where only a bound is given, the exact number is not on record here.

Regarding `CCOC(=O)CCNc1cc(N2CCc3ccccc3CC2)nc(-c2ccccn2)n1` [GSK-J4], the “final tumor weights vs vehicle” value in series [1] (GSK-J4 100 mg/kg 10 days) is “no significant drug-induced decrease”. In addition, in series [1], the “final tumor burden (tumor weights) of combination” value is “significant reduction in final tumor burden compared to either therapy alone” and the “tumor growth inhibition of combination” value was “significantly greater tumor growth inhibition than single agents”. Moreover, in the series with H1299 T18 xenografts, the “final tumor weights vs vehicle” value is “significant decrease in final tumor weights” and the “tumor volume vs vehicle” value was “significant reduction in average tumor volume”. Also, in the series with H1299 T18 xenografts (mouse, in vivo), the “% γH2AX+ cells in tumors (IHC)” value is given as “increased the % γH2AX+ cells” and the “cleaved caspase 3 staining in tumors (IHC)” value is reported as “focally increased cleaved caspase 3 staining”. The “toxicity in treated mice” value in the series on H1355 T16 xenografts is “No appreciable toxicity”. For the same compound, the “H3K27me3 demethylase activity in tumor lysates” value in series [2] is reported as “significantly inhibited H3K27me3 demethylase activity”. For the same compound, the “radiosensitization (clonogenic survival)” value in the series with H1299 was “failed to radiosensitize”. Further, in the series with γH2AX foci (H1299 and A549, 4 h pretreatment, then IR), the “defects in γH2AX foci resolution” value is “not observed”.
For the compound `Clc1ccc(N/N=C(\c2ccccc2)c2ccccn2)nc1` [JIB-04], the “tumor volume vs vehicle” value in series [1] (GSK-J4 100 mg/kg every day 10 days, JIB-04 5, 20 or 50 mg/kg 3x per week 2 weeks by gavage) is “significantly reduced tumor burden”. In series [1], the “final tumor burden (tumor weights) of combination” value was “significant reduction in final tumor burden compared to either therapy alone” and the “tumor growth inhibition of combination” value is listed as “significantly greater tumor growth inhibition than single agents”. Besides, the “change in tumor doubling time” value in series [1] (setting [3]) was less than 25%. Besides, in the series with H1299 T18 xenografts, the “final tumor weights vs vehicle” value is reported as “significant decrease in final tumor weights” and the “tumor volume vs vehicle” value is given as “greater percent reduction in final tumor volumes”. In addition, the “increase in tumor doubling time” value in the series on H1299 T18 xenografts (setting [3]) turned out to be 69%. Moreover, in the series on H1299 T18 xenografts (mouse, in vivo), the “% Ki67+ cells in tumors (IHC)” value is on record as “reduction of % Ki67+ cells” and the “cleaved caspase 3 staining in tumors (IHC)” value was “focally increased cleaved caspase 3 staining”. Moreover, the “change in tumor volume relative to treatment start” value with H1355 T16 xenografts (GSK-J4 100 mg/kg i.p. 5x per week, JIB-04 50 mg/kg oral gavage 3x per week, 4 weeks) is listed as “significant tumor shrinkage”. The “toxicity in treated mice” value with H1355 T16 xenografts was “No appreciable toxicity”. The “H3K27me3 demethylase activity in tumor lysates” value in series [2] is recorded as “significantly inhibited”. In addition, in the series with H1299, the “radiosensitization, JIB-04 before IR vs 4 h post-irradiation” value is “significantly more robust when administering JIB-04 first” and the “radiosensitization (clonogenic survival)” value is “had a radiosensitization/radioenhancement effect”. Further, the “γH2AX foci remaining unresolved at late time points” value with γH2AX foci (H1299 and A549, 4 h pretreatment with colony formation IC50 dose, then IR) is greater than 30%. Besides, in the series on γH2AX foci (normal HBEC30KT cells, 500 nM JIB-04, 2 Gy), the “γH2AX foci formation and resolution” value is “no defects”. In the series on γH2AX foci (prostate cancer cell line LNCap, JIB-04 and IR, data not shown), the γH2AX foci resolution result is recorded as “defects in γH2AX foci resolution”.
